According to PMC10233092, “Selective Janus kinase 1 inhibition resolves inflammation and restores hair growth offering a viable treatment option for alopecia areata” (Skin Health and Disease, 2023):
Where “and” joins values, the source holds several entries; their conditions need not be identical. Identical values can stand only once. Like-named read-outs stand apart in the source and are kept apart here.

Tests used:
[1] = system: C3H/HeJ mouse model of AA; test: Skin histopathology and hair follicle analysis in AA mice; format: in vivo; details: for Follicle width / Number of hair follicles per section (hypodermal): individual mice and Mean; for skin inflammation, result in words: AA mice, oral daily servings (systemic exposure)
Description: A 1 cm^2 area of skin was excised from the right dorsal surface and fixed in 10% neutral buffered formalin for 24 h before processing and embedding in paraffin wax according to standard procedures. Vertical sectioning was chosen to allow for optimal detection of inflammatory cells whilst enabling follicular counts. 3 μm longitudinal sections were cut and stained with haematoxylin and eosin for histopathological analysis. Skin sections were scanned using an Aperio Scanscope. CD8 and NKG2D in situ hybridization (ISH) was carried out using the RNAScope technique[48] according to the manufacturer's protocols. Briefly, tissue sections were deparaffinised and incubated with epitope retrieval solution 2 for 15 min at 88°C followed by ACD protease for 10 min before hybridization with probe Mm‐Klrk1 (ACD, Cat.No.430808) and probe Mm‐Cd8a‐C2 (ACD, Cat.No. 401688‐C2) or duplex negative control probes Mm‐DapB (ACD, Cat.No. 320758). Bound probe was visualized following amplification with RNAScope 2.5 LS Duplex Reagent Kit‐(RED/BROWN) (ACD Cat.No. 322440). Staining was visualized by light microscopy. Number of hair follicles and hair follicle width were analyzed using ImageJ software edition ImageJ2. Images were imported using the bio‐format importer plug in. The number of follicles were counted using the cell counter plugin. All follicles on all sections in the dermal fat layer were counted. Follicle width was calculated with use of the circle tool to capture follicle area and from it calculate the width. All follicles on all sections in the dermal fat layer were included in the width analysis.

[2] = system: Human Peripheral Blood Mononuclear Cells (PBMCs); test: Cytokine release from anti-CD3-stimulated human PBMCs; format: cell-based; details: anti-CD3, 40-48h, 4 healthy donors, linear regression
Description: Human Peripheral Blood Mononuclear Cells (PBMCs) were isolated by Sepmate technique (Stemcell Technologies) from heparinized venous blood from healthy volunteers. Primary human CD8^+ T‐cells were further isolated using a CD8^+ T cell Isolation Kit according to protocol (Miltenyi Biotec). Experiments were approved by the local ethical committee in Gothenburg (033‐11).
Soluble anti‐CD28 were added to the CD8^+ cultures to facilitate co‐stimulation. After 40–48 h, supernatants were harvested for mediator analysis and the cells were washed and resuspended in RLT buffer (Qiagen) for RNA isolation.
Analysis of human cytokine panels was carried out using a Luminex assay kit from Merck Millipore (Cat# HCYTMAG‐60K‐PX41) and Mesoscale Discovery (MSD) immunoassay kits (Cat# K211AEB‐2 and K15049D) as recommended in the respective supplier protocols.

[3] = system: C3H/HeJ mouse model of AA; test: Circulating cytokines in mouse plasma, Luminex; format: in vivo; details: at 4 weeks
Description: A Luminex assay kit from Merck Millipore (Cat# MTH17MAG‐47K) was used and the analysis carried out according to the supplier protocols.

[4] = system: C3H/HeJ mouse model of AA; test: Cellularity and flow cytometry of spleen and skin draining lymph nodes; format: in vivo; details: AA mice
Description: Cutaneous lymph nodes and spleens from mice treated either orally or topically (treated and untreated side, respectively) were pooled and minced in DPBS/2% FBS/2 mM EDTA, filtered through […] strainers and spun at 350 g for 5 min. Blood was collected in EDTA‐coated tubes and red blood cells were lysed using BD FACS lysing solution (as was red blood cells from spleen single cell suspensions). Cell differential were obtained from haematology analyzer Sysmex XE‐2100 (Sysmex Corporation, Japan). Equal cell numbers for each sample were incubated with anti‐mouse CD16/CD32 block to prevent unspecific binding and then stained for 30 min at 4°C with the following anti‐mouse antibodies (all from BD); FITC CD3e (145‐2C11), APC‐Cy7 TCRβ (H‐57‐597), BV510 or BV786 CD8α (53‐6.7), BV711 NKG2D (Cx5), BUV395 CD4 (GK1.5), BV711 or BV605 CD44 (IM7), BUV395 CD45 (30‐F11), PerCP‐Cy5.5 CD19 (1D3) and PE‐Cy7 CD62L (MEL‐14). […] The cells were analyzed on a BD LSRII flow cytometer and analysis was performed with FlowJo (Tree Star) software.

[5] = C3H/HeJ, mouse, in vivo
[6] = 8w off Tx (4 weeks oral treatment, then 8 weeks off)
[7] = 8w off Tx (4 weeks oral treatment, then 8 weeks off), mean
[8] = Systemic JAK1i, after 4 weeks oral treatment
[9] = Systemic JAK1i, after 4 weeks oral treatment, mean
[10] = Local JAK1i group, Mean±95% CI, n=6
[11] = Systemic JAK1i group, Mean±95% CI, n=6

## Cc1cnc(Nc2cccnc2F)nc1-c1c[nH]c2c(NC(=O)[C@@H](C)N3CCN(C)CC3)cccc12 [Cmpd A]
[1]; [6]
  Follicle width: 36 μm and 26 μm and 38 μm and 31 μm and 35 μm
  Number of hair follicles per section (hypodermal): 51 and 595 and 35 and 9 and 44 and 48
[1]; [7]
  Follicle width: 32 μm
  Number of hair follicles per section (hypodermal): 130
[1]
  skin inflammation, result in words: resolution of inflammation in the skin
[1]; [8]
  Follicle width: 28 μm and 26 μm and 29 μm and 25 μm
  Number of hair follicles per section (hypodermal): 150 and 542 and 263 and 363 and 20 and 288
[1]; [9]
  Follicle width: 27 μm
  Number of hair follicles per section (hypodermal): 271
[2]
  release of TNFα, IL-1RA, IP-10, IL-17 and MIP-1β from PBMC compared with Ruxo and Tofa: significantly differently released

## COCC(C(=O)Nc1cccc2c(-c3nc(Nc4cccc(S(C)(=O)=O)c4F)ncc3F)c[nH]c12)N1CCN(C)CC1 (stereo not drawn) [Cmpd C]
[1]
  skin inflammation, result in words: resolved inflammation
[3]; [10]
  IFN-γ in mouse plasma: 42 (±14) pg/mL
  IL-1β in mouse plasma: 2.4 (±0.5) pg/mL
  IL-2 in mouse plasma: 6.2 (±1.6) pg/mL
  IL-10 in mouse plasma: 2.9 (±1.4) pg/mL
  IL-13 in mouse plasma: 37 (±2.9) pg/mL
  IL-17A in mouse plasma: 15 (±2.4) pg/mL
  IL-22 in mouse plasma: 35 (±25) pg/mL
  IL-23 in mouse plasma: 148 (±95) pg/mL
  IL-33 in mouse plasma: 76 (±58) pg/mL
  TNFα in mouse plasma: 7.3 (±0.8) pg/mL
[3]; Local JAK1i group, only one value within detection range
  IL-6 in mouse plasma: 2.8 (±NA) pg/mL
[3]; [11]
  IFN-γ in mouse plasma: 49 (±21) pg/mL
  IL-2 in mouse plasma: 4.5 (±1.5) pg/mL
  IL-6 in mouse plasma: 2.9 (±2.3) pg/mL
  IL-10 in mouse plasma: 2.4 (±0.7) pg/mL
  IL-13 in mouse plasma: 33 (±13) pg/mL
  IL-17A in mouse plasma: 15 (±4.2) pg/mL
  IL-22 in mouse plasma: 42 (±31) pg/mL
  IL-23 in mouse plasma: 206 (±333) pg/mL
  IL-33 in mouse plasma: 32 (±17) pg/mL
  TNFα in mouse plasma: 6.3 (±2.0) pg/mL
[3]; Systemic JAK1i group, only one value within detection range
  IL-1β in mouse plasma: 2.0 (±NA) pg/mL
[4]; systemic (oral 12.5 mg/kg/day, 2 weeks)
  hypercellularity of skin draining LNs and spleen: drastically reduced
[4]; topical treatment (0.01% cream, 2 weeks)
  hypercellularity of skin draining LNs and spleen: only marginally affected
[5]
  estimated average free exposure in plasma over IC50: 0.02 fold IC50
  estimated average free exposure in skin over IC50: 0.43 fold IC50
[5]; po, 2 weeks
  estimated average free exposure in plasma over IC50: 1.4 fold IC50
  estimated average free exposure in skin over IC50: 0.5 fold IC50
